Here are results for 2 compounds from paper PMC4674339 (European journal of medicinal chemistry, 2015).

Entries after “also recorded” stand apart in the source; their conditions may differ. Like-named read-outs stand apart in the source and are kept apart here.

Test [1] relates to ADP induced human platelet aggregation. Put plainly: ADP-induced human platelet aggregation, 96-well microplate method. The class given is cell-based.
In another test the target is T1, platelet P2X1 receptors (Homo sapiens, UniProt P51575).
T1 sequence (P51575 1-399): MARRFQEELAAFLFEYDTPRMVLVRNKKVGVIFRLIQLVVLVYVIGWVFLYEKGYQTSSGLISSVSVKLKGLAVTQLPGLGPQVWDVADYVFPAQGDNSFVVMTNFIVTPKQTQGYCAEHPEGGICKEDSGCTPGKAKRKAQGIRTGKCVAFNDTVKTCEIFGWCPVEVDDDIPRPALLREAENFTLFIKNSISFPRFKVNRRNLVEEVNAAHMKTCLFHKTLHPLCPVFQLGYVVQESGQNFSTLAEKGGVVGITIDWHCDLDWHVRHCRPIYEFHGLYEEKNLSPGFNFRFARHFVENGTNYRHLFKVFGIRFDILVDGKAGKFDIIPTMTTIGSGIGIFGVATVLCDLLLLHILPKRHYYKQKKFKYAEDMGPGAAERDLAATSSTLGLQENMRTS
Put plainly: P2X1-mediated entry of extracellular Ca2+. The format is cell-based.

The subject of test [2] is ADP induced human platelet aggregation. Put plainly: ADP induced human platelet aggregation by optical aggregometry. The class given is cell-based. The settings on record: 25 and 100 nM; pre-incubation 0, 5, 15 min; data not shown.
The test system of test [3] is GPIIb-IIIa and P-selectin on the surface of human platelets. Put plainly: Reversibility of inhibition of activation marker expression after dilution. The class given is cell-based. The settings on record: 30 min with 10 nM, then 100x dilution with platelet poor plasma; 20 μM ADP.
The target in the next test is human P2Y2 receptors (Homo sapiens, UniProt P41231). Put plainly: Effect on human P2Y2 receptors. To be noted: data not shown.
The next test concerns the target human P2Y4 receptors (Homo sapiens, UniProt P51582). The experiment in a line: Effect on human P2Y4 receptors. To be noted: data not shown.
The next test addresses human P2Y6 receptors (Homo sapiens, UniProt Q15077). The experiment in a line: Effect on human P2Y6 receptors. To be noted: data not shown.
In test [4] the target is human platelet P2Y1 receptors (Homo sapiens, UniProt P47900). The settings on record: 3 μM ADP; human whole blood; N=3 unless stated.
Sequence of human platelet P2Y1 receptors (P47900 whole entry): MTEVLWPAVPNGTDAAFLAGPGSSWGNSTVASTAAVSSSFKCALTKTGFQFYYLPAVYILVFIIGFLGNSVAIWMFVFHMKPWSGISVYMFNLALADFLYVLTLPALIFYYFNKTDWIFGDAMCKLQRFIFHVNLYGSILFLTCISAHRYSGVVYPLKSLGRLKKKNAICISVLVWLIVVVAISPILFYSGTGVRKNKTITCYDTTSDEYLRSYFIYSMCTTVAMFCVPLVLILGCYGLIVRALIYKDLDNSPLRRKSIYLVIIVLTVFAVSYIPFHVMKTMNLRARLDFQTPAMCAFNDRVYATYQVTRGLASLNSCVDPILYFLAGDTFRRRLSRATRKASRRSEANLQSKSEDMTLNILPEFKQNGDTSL

Sequence of human P2Y6 receptors (Q15077 whole entry): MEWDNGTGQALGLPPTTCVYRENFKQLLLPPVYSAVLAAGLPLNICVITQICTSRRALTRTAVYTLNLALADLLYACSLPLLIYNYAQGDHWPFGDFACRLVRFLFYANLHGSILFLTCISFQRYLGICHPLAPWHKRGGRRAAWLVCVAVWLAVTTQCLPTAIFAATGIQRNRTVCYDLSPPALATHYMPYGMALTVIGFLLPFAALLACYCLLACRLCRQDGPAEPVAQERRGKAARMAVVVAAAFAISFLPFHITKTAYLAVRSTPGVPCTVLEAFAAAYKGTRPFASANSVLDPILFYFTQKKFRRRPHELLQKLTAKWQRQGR
Sequence of human P2Y2 receptors (P41231 whole entry): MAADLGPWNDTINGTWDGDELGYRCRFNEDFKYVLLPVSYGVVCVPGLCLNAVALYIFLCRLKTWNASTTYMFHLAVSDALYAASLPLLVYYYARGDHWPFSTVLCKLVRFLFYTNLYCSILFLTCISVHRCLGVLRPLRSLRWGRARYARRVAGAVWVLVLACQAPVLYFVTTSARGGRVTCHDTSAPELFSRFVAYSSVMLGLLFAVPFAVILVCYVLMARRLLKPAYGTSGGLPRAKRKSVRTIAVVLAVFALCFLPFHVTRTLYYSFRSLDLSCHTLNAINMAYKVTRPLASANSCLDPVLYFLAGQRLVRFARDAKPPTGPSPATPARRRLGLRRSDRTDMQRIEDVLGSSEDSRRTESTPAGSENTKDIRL
Sequence of human P2Y4 receptors (P51582 whole entry): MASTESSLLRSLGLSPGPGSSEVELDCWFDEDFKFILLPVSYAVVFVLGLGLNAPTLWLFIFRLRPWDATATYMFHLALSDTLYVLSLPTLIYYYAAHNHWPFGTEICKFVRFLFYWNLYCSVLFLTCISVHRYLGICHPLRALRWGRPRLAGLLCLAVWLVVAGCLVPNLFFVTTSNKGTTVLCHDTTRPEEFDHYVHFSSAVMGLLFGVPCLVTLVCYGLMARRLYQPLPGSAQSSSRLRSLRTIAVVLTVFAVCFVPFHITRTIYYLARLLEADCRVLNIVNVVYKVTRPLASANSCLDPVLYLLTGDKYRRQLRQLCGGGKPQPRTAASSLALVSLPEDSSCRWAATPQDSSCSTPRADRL

A word on the IC50: it is the concentration at which inhibition is half-maximal. Regarding `CSc1nc(N)c2ncn([C@@H]3O[C@H](COP(=O)([S-])OP(=O)([O-])C(Cl)P(=O)([O-])OP(=O)([S-])OC[C@H]4O[C@@H](n5cnc6c(N)nc(SC)nc65)[C@H](O)[C@@H]4O)[C@@H](O)[C@H]3O)c2n1.[Na+].[Na+].[Na+].[Na+]` (mixture of isomers) [Compound 5, P^1,P^4-di-(2-methylthio-5′-adenosine) P^1,P^4-dithio-P^2,P^3-chloromethylenetetraphosphate], the IC50 came to 36.1 nM in test [1] (read-out: IC50, nM (95% Confidence Interval), no pre-incubation, 3 μM ADP); 11.6 nM in test [1] (read-out: IC50, nM (95% Confidence Interval), pre-incubation with test compound, 5 μM ADP); 27.6 nM in test [1] (read-out: IC50, nM (95% Confidence Interval), pre-incubation with test compound, 20 μM ADP). Besides, at platelet P2X1 receptors, the “P2X1 agonist activity” value is “practically devoid of agonist activity; also recorded: did not have an effect”. In addition, in test [2], the “Pre-incubation time for full pre-incubation effect” value is at most 15 min. Further, the “Recovery of ability to express the activation markers after dilution” value in test [3] is on record as 80–90%. In addition, the “Effect on human P2Y2 receptors” value at human P2Y2 receptors is recorded as “did not have an effect”. The “Effect on human P2Y4 receptors” value on human P2Y4 receptors is “did not have an effect”. For the same compound, at human P2Y6 receptors, the “Effect on human P2Y6 receptors” value is given as “did not have an effect”.
Consider `CSCCNc1nc(SCCC(F)(F)F)nc2c1ncn2[C@@H]1O[C@H](COP(=O)(O)OP(=O)(O)C(Cl)(Cl)P(=O)(O)O)[C@@H](O)[C@H]1O` [Cangrelor], for which, in test [4], the “P2Y1 inhibition IC50±SEM” value is on record as “Not inhibitor”.
